Reference: patent publication US8779004B2, “Stable emulsion formulations” (Amgen, Inc., priority 2006, dated 2014)

Key:
[1] = Effect of pH and buffer type on emulsion stability (pH, particle size before/after one autoclave cycle); format: physicochemical; settings: after one autoclave cycle, 2% egg lecithin
Description: Tables 6 summarizes the effect of pH and the buffer type on emulsion stability as measured by the particle size. Emulsions were made using 2% egg lecithin, 2.25% glycerin in water for injection. Particle size and pH were measured after one-autoclave cycle. For all emulsions, particle size before autoclaving as represented by D(4,3) was in a range of 0.30 to 0.45 μm. Emulsions were stable at high pH using TRIS and DEA buffer, and at low pH using phosphate buffer over varying concentrations of cinacalcet and soybean oil. Closer to pH 7 using phosphate buffer, increase in particle size was seen after autoclaving.
Particle size data is reported as D(4,3) before and after one autoclaving cycle.

[2] = Long-term storage stability of emulsions (assay, pH, particle size); format: physicochemical; settings: 5 mg/mL emulsion
Description: Calcimimetics emulsions for long-term studies were prepared at 5 mg/mL drug concentration, 5% SBO, 2% egg lecithin, 2% glycerin, 20 mM TRIS buffer at pH 9. The emulsions were packed in glass vials at 20 mL each and stored inverted in stability chambers. At each time-point, 3 vials from each chamber were pulled and analyzed for the calcimimetic concentration, pH and particle size. […] The values for pH dropped over time, with greater magnitude of drop seen at higher temperature.

[3] = DEA 0.05%, target cinacalcet 1 mg/mL, SBO conc. 10
[4] = DEA 0.05%, target cinacalcet 5 mg/mL, SBO conc. 5
[5] = DEA 0.05%, target cinacalcet 10 mg/mL, SBO conc. 10
[6] = DEA 0.1%, target cinacalcet 5 mg/mL, SBO conc. 5
[7] = DEA 0.2%, target cinacalcet 5 mg/mL, SBO conc. 5
[8] = DEA 0.3%, target cinacalcet 5 mg/mL, SBO conc. 5
[9] = No buffer, target cinacalcet 5 mg/mL, SBO conc. 10
[10] = PO4 buffer 15 mM, target cinacalcet 5 mg/mL, SBO conc. 10
[11] = TRIS 5 mM, target cinacalcet 1 mg/mL, SBO conc. 10
[12] = TRIS 5 mM, target cinacalcet 5 mg/mL, SBO conc. 10
[13] = TRIS 5 mM, target cinacalcet 10 mg/mL, SBO conc. 20
[14] = TRIS 10 mM, target cinacalcet 5 mg/mL, SBO conc. 5
[15] = TRIS 15 mM, target cinacalcet 5 mg/mL, SBO conc. 5
[16] = TRIS 20 mM, target cinacalcet 5 mg/mL, SBO conc. 5

In the case of `C[C@@H](NCCCc1cccc(C(F)(F)F)c1)c1cccc2ccccc12` [Cinacalcet, N-(1-(R)-(1-naphthyl)ethyl]-3-[3-(trifluoromethyl)phenyl]-1-aminopropane], the “D(4, 3)” value [1, 3] is reported as 0.44 μm, the pH [1, 3] is reported as 8.81 and the “D(4, 3)” value [1, 4] is reported as 0.39 μm. The pH [1, 4] was 8.77, the “D(4, 3)” value [1, 5] was 0.41 μm and the pH [1, 5] was 8.82. For the same compound, the “D(4, 3)” value [1, 6] was 0.40 μm, the pH [1, 6] was 8.95 and the “D(4, 3)” value [1, 7] was 0.35 μm. The pH [1, 7] was 9.13, the “D(4, 3)” value [1, 8] was 0.36 μm and the pH [1, 8] was 9.12. The “D(4, 3)” value [1, 9] was 1.48 μm, the pH [1, 9] was 8.45 and the pH ([1]; PO4 buffer 10 mM (first of two emulsions), target cinacalcet 5 mg/mL, SBO conc. 5) was 6.36. For the same compound, the pH ([1]; PO4 buffer 10 mM (second of two emulsions), target cinacalcet 5 mg/mL, SBO conc. 5) was 6.78, the “D(4, 3)” value ([1]; PO4 buffer 10 mM, pH 6.36, target cinacalcet 5 mg/mL, SBO conc. 5) was 0.39 μm and the “D(4, 3)” value ([1]; PO4 buffer 10 mM, pH 6.78, target cinacalcet 5 mg/mL, SBO conc. 5) was 0.76 μm. The “D(4, 3)” value [1, 10] was 1.59 μm, the pH [1, 10] was 7.15 and the “D(4, 3)” value [1, 11] was 0.48 μm. The pH [1, 11] was 8.75, the pH ([1]; TRIS 5 mM, target cinacalcet 5 mg/mL, SBO conc. 5) was 8.80 and the “D(4, 3)” value [1, 12] was 0.32 μm. For the same compound, the pH [1, 12] was 8.87, the pH ([1]; TRIS 5 mM, target cinacalcet 10 mg/mL, SBO conc. 10) was 8.82 and the “D(4, 3)” value [1, 13] was 0.36 μm. For the same compound, the pH [1, 13] was 8.82, the “D(4, 3)” value [1, 14] was 0.30 μm and the pH [1, 14] was 9.06. The “D(4, 3)” value [1, 15] was 0.34 μm, the pH [1, 15] was 9.04 and the “D(4, 3)” value [1, 16] was 0.29 μm. For the same compound, the pH [1, 16] was 9.13, the “changes in particle size” value ([2]; 2 years at 5° C. and 25° C.) was “No significant changes” and the “cinacalcet assay and impurity levels” value ([2]; 2 years at 5° C. and 25° C.) was “within specifications”. The “cinacalcet assay and impurity levels” value ([2]; 9 months at 40° C.) was “within specifications” and the “changes in particle size” value ([2]; 18 months at 40° C.) was “No significant changes”.
